US20200200775A1, “OXIDIZED LIPIDS AS BIOMARKERS FOR NEUROPATHIC PAIN” (Fraunhofer-Gesellschaft zur Förderung der angewandten …, priority 2017, published 2020)

How the values were obtained:
[1] = LC-MS/MS lipid profiling in mouse models of chemotherapy-induced peripheral neuropathic pain; settings: for concentrations of 9,10-EpOME: various pain relevant tissues and plasma following paclitaxel (6 mg/kg i.p.) or oxaliplatin (3 mg/kg i.p.) treatment, measurable as early as 24 hours after injection; for concentrations of 9-HODE / concentrations of 13-HODE: various pain relevant tissues and plasma following paclitaxel or oxaliplatin treatment
Method: For all behavioral experiments, only 6-12 weeks old male C57BL/6N mice were used and purchased from commercial breeding companies (Charles River, Sulzfeld, Germany, Janvier, Le Geneset-Saint-Isle, FR). To compare mechanical thresholds, age and sex matched littermates were used as control.
Paclitaxel was dissolved in Cremophor EL/Ethanol 1:1 and diluted in saline. The dose for intraperitoneal injection was set to 6 mg/kg as described previously [4]. Oxaliplatin was dissolved in saline. The dose for intraperitoneal injection was set to 3 mg/kg as described previously [5].
For the measurement of epoxy lipids and HETEs stock solutions of the analytes 9,10-EpOME, 9-HODE, 13-HODE, 12-HETE and 15-HETE and internal standards 9,10-EpOME-d4, 9-HODE-d4, 13-HODE-d4, 12-HETE-d4 and 15-HETE-d4 are generated with concentrations of 2500 ng/ml in ethanol. Working standards were obtained by further dilution with a concentration range of 0.1-250 ng/ml for all analytes.
For prostanoids, stock solutions with 50,000 ng/ml of all analytes (6-keto-PGF1α) and internal standards (6-keto-PGF1α-d4) were prepared in methanol.
Lipids are extracted twice with 600 μl of ethyl acetate using liquid-liquid extraction. The combined organic phases were removed at a temperature of 45° C. under a gentle stream of nitrogen. The residues were reconstituted with 50 μl of methanol/water/butylated hydroxytoluene (BHT) (50:50:10^−3, v/v/v) (EpOMEs, HODEs and HETEs), or 50 μl of acetonitrile/water/formic acid (20:80:0.0025, v/v/v) (6-keto-PGF1α) and then centrifuged for 2 min at 10,000 g, and transferred to glass vials waiting for analysis.
The LC-MS/MS system consists of a QTrap 5500 (AB Sciex, Darmstadt, Germany) equipped with a Turbo-V source operating in negative electrospray ionization mode, an Agilent 1200 binary HPLC pump and degasser (Agilent, Waldbronn, Germany), and an HTC Pal autosampler (CTC analytics, Zwingen, Switzerland). High-purity nitrogen for the mass spectrometer was produced by a NGM 22-LC-MS nitrogen generator (cmc Instruments, Eschborn, Germany).
For the chromatographic separation of EpOMEs, HODEs and HETEs, a Gemini NX C18 column and precolumn were used (150×2 mm inner diameter, 5 μm particle size, and 110 Å pore size; Phenomenex, Aschaffenburg, Germany). For the chromatographic separation of prostanoids, a Synergi 4 u Hydro-RP column (150×2 mm inner diameter, 4 μm, Phenomenex, Aschaffenburg, Germany) and a precolumn of same material were used.
Mobile phase A consist of water: ammonia (100:0.05, v/v), and mobile phase B of acetonitrile ammonia (100:0.05, v/v). The gradient changed from 85% A to 10% within 12 min. These conditions were held for 1 min.
For the chromatographic separation of prostanoids, a Synergi 4 u Hydro-RP column (150×2 mm inner diameter, 4 μm, Phenomenex, Aschaffenburg, Germany) and a precolumn of same material were used.

[2] = Plasma concentrations of 9,10-EpOME and 9,10-DiHOME after paclitaxel treatment, with telmisartan administration; format: in vivo, mice; settings: 8 d after paclitaxel-treatment (6 mg/kg); telmisartan 10 mg/kg, 2 h
Method: FIG. 4: Plasma-concentrations of 9,10-EpoME and its Metabolite 9,10-DiHOME 8d after paclitaxel-treatment (6 mg/kg) can be reduced by administration of telmisartan (10 mg/kg, 2h). Data are shown as mean±SEM from five mice per group; one-way ANOVA, *p<0.05.
Oxaliplatin was dissolved in saline.
These conditions were held for 1 min.
Ratios of analyte peak area and internal standard area.

[3] = pain relevant tissues, FIG. 2: 8 d after i.p. paclitaxel (6 mg/kg)

| concentrations of 12-HETE [1, 3] | concentrations of 15-HETE [1, 3] | concentrations of 6-keto-Prostaglandin-F1α ([1]; pain relevant tissues, FIG. 2: 8 d after multiple i.p. paclitaxel (4×2 mg/kg, every other day)) | SMILES | concentrations of 9,10-EpOME [1] | concentrations of 9-HODE [1] | concentrations of 13-HODE [1] | Plasma-concentrations of 9,10-DiHOME [2] | Plasma-concentrations of 9,10-EpOME [2] |
| --- | --- | --- | --- | --- | --- | --- | --- | --- |
|  |  |  | O=C1[O][Pt]2([NH][C@@H]3CCCC[C@H]3[NH]2)[O]C1=O [oxaliplatin] | elevated | elevated | elevated |  |  |
| decreased | decreased | decreased | CC(=O)O[C@H]1C(=O)[C@@]2(C)[C@H]([C@H](OC(=O)c3ccccc3)[C@]3(O)C[C@H](OC(=O)[C@H](O)[C@@H](NC(=O)c4ccccc4)c4ccccc4)C(C)=C1C3(C)C)[C@]1(OC(C)=O)CO[C@@H]1C[C@@H]2O [paclitaxel] | elevated | elevated | elevated |  |  |
|  |  |  | CCCc1nc2c(C)cc(-c3nc4ccccc4n3C)cc2n1Cc1ccc(-c2ccccc2C(=O)O)cc1 [telmisartan] |  |  |  | reduced | reduced |
